Experiments:
[1] = target: T1, Angiotensin-converting enzyme (Homo sapiens, UniProt P12821); experiment: Inhibition of ACE (unknown origin) assessed as 3-Hydroxybutyril-glycil-glycil-glycine conversion to 3-hydroxybutyric acid at 500 uM after 60 mins by WST assay relative to control
[2] = target: D(2) dopamine receptor (Homo sapiens) (UniProt P14416); experiment: Agonist activity at human recombinant dopamine D2 long receptor expressed in CHOK1 cells coexpressing mitochondrial apoaequorin at 100 uM by luminometric analysis relative to quinpirol; type: cell-based; details: CHO-K1
Sequence of D(2) dopamine receptor (Homo sapiens) (P14416 whole entry): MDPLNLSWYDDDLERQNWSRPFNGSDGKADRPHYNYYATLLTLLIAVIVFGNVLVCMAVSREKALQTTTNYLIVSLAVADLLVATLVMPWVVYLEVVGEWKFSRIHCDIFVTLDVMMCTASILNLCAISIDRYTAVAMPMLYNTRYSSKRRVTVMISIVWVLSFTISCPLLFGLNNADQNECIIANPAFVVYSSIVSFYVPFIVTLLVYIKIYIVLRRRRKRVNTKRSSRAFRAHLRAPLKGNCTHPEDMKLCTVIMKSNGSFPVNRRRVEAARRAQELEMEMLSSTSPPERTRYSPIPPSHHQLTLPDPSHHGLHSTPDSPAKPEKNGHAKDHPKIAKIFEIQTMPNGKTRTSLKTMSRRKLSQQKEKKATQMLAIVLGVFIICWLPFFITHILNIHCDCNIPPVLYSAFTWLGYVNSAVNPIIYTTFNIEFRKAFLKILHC

[3] = target: D(1A) dopamine receptor (Homo sapiens) (UniProt P21728); experiment: Antagonist activity at human recombinant dopamine D1 receptor expressed in CHOK1 cells assessed as inhibition of agonist-induced cAMP accumulation at 100 uM preincubated for 10 mins prior to agonist addition measured after 30 mins by HTRF assay relative to SCH23390; type: functional, cell-based; details: CHO-K1
Sequence of D(1A) dopamine receptor (Homo sapiens) (P21728 whole entry): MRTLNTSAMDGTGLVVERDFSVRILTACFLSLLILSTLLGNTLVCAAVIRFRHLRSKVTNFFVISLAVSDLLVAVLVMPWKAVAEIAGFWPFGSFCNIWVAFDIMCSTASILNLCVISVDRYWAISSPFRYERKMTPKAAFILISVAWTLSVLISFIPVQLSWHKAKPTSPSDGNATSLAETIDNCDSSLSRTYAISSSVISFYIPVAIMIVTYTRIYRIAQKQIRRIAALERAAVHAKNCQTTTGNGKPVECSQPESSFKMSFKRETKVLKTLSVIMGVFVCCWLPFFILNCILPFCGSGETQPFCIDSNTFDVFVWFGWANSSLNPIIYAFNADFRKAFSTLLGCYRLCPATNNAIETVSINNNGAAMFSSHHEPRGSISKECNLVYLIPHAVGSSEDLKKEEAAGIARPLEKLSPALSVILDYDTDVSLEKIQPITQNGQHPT

[4] = target: D(1A) dopamine receptor (Homo sapiens) (UniProt P21728); experiment: Agonist activity at human recombinant dopamine D1 receptor expressed in CHOK1 cells assessed as stimulation of cAMP accumulation at 100 uM after 30 mins by HTRF assay relative to SKF81297; type: functional, cell-based; details: CHO-K1
[5] = target: D(2) dopamine receptor (Homo sapiens) (UniProt P14416); experiment: Antagonist activity at human recombinant dopamine D2 long receptor expressed in CHOK1 cells coexpressing mitochondrial apoaequorin assessed as inhibition of agonist-induced effect at 50 uM after 15 mins by luminometric analysis relative to haloperidol; type: cell-based; details: CHO-K1
[6] = target: T2, Prostaglandin G/H synthase 1 (Homo sapiens, UniProt P23219); experiment: Inhibition of COX-1 (unknown origin) using arachidonic acid as substrate assessed as formation of prostanoid products at 500 uM preincubated for 10 mins prior to substrate addition measured after 2 mins by Ellman's method relative to control
T2 sequence (P23219 whole entry): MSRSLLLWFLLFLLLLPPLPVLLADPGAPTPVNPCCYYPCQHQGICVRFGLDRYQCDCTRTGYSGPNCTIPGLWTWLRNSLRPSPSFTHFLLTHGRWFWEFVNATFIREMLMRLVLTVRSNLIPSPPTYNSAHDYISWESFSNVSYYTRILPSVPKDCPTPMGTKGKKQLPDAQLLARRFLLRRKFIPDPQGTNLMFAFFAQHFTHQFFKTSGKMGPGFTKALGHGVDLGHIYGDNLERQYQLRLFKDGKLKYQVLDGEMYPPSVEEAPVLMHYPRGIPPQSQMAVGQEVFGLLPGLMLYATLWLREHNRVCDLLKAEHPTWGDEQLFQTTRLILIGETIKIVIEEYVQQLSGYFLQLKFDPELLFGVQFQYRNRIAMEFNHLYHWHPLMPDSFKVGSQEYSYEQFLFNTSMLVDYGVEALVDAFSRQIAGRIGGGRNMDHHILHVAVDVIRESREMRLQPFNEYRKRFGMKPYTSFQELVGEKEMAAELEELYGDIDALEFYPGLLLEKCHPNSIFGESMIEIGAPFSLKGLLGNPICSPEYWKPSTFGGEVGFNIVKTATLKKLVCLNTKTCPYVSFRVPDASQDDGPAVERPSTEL

[7] = target: T2, Prostaglandin G/H synthase 1; experiment: Inhibition of COX-1 (unknown origin) using arachidonic acid as substrate assessed as formation of prostanoid products preincubated for 10 mins prior to substrate addition measured after 2 mins by Ellman's method
[8] = target: T1, Angiotensin-converting enzyme; experiment: Inhibition of ACE (unknown origin) assessed as 3-Hydroxybutyril-glycil-glycil-glycine conversion to 3-hydroxybutyric acid after 60 mins by WST assay
[9] = target: T1, Angiotensin-converting enzyme; experiment: Inhibition of ACE (unknown origin) assessed as 3-Hydroxybutyril-glycil-glycil-glycine conversion to 3-hydroxybutyric acid at 128 uM after 60 mins by WST assay relative to control
[10] = target: T3, Prostaglandin G/H synthase 2 (Homo sapiens, UniProt P35354); experiment: Inhibition of COX-2 (unknown origin) using arachidonic acid as substrate assessed as formation of prostanoid products preincubated for 10 mins prior to substrate addition measured after 2 mins by Ellman's method
T3 sequence (P35354 whole entry): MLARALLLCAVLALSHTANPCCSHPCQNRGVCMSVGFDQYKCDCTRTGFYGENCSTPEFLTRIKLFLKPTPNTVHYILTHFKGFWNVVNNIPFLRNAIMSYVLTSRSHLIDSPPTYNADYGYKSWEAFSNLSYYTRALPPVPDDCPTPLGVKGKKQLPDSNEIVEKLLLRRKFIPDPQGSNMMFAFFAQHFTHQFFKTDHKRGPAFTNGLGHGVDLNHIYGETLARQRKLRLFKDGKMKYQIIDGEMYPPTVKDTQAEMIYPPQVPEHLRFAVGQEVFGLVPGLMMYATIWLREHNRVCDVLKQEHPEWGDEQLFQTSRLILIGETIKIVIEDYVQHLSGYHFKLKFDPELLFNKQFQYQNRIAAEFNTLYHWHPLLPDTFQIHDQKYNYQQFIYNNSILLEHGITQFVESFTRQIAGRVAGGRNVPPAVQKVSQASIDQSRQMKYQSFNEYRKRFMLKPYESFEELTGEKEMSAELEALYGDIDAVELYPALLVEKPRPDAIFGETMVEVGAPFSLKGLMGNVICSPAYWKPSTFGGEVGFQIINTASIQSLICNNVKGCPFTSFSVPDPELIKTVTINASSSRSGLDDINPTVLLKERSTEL

[11] = target: D(1A) dopamine receptor (Homo sapiens) (UniProt P21728); experiment: Antagonist activity at human recombinant dopamine D1 receptor expressed in CHOK1 cells assessed as inhibition of agonist-induced cAMP accumulation at 8 uM preincubated for 10 mins prior to agonist addition measured after 30 mins by HTRF assay relative to SCH23390; type: functional, cell-based; details: CHO-K1
[12] = target: D(1A) dopamine receptor (Homo sapiens) (UniProt P21728); experiment: Agonist activity at human recombinant dopamine D1 receptor expressed in CHOK1 cells assessed as stimulation of cAMP accumulation at 8 uM after 30 mins by HTRF assay relative to SKF81297; type: functional, cell-based; details: CHO-K1
[13] = target: D(2) dopamine receptor (Homo sapiens) (UniProt P14416); experiment: Antagonist activity at human recombinant dopamine D2 long receptor expressed in CHOK1 cells coexpressing mitochondrial apoaequorin assessed as inhibition of agonist-induced effect at 8 uM after 15 mins by luminometric analysis relative to haloperidol; type: cell-based; details: CHO-K1
[14] = target: D(2) dopamine receptor (Homo sapiens) (UniProt P14416); experiment: Agonist activity at human recombinant dopamine D2 long receptor expressed in CHOK1 cells coexpressing mitochondrial apoaequorin at 8 uM by luminometric analysis relative to quinpirol; type: cell-based; details: CHO-K1

T1 sequence (P12821 whole entry): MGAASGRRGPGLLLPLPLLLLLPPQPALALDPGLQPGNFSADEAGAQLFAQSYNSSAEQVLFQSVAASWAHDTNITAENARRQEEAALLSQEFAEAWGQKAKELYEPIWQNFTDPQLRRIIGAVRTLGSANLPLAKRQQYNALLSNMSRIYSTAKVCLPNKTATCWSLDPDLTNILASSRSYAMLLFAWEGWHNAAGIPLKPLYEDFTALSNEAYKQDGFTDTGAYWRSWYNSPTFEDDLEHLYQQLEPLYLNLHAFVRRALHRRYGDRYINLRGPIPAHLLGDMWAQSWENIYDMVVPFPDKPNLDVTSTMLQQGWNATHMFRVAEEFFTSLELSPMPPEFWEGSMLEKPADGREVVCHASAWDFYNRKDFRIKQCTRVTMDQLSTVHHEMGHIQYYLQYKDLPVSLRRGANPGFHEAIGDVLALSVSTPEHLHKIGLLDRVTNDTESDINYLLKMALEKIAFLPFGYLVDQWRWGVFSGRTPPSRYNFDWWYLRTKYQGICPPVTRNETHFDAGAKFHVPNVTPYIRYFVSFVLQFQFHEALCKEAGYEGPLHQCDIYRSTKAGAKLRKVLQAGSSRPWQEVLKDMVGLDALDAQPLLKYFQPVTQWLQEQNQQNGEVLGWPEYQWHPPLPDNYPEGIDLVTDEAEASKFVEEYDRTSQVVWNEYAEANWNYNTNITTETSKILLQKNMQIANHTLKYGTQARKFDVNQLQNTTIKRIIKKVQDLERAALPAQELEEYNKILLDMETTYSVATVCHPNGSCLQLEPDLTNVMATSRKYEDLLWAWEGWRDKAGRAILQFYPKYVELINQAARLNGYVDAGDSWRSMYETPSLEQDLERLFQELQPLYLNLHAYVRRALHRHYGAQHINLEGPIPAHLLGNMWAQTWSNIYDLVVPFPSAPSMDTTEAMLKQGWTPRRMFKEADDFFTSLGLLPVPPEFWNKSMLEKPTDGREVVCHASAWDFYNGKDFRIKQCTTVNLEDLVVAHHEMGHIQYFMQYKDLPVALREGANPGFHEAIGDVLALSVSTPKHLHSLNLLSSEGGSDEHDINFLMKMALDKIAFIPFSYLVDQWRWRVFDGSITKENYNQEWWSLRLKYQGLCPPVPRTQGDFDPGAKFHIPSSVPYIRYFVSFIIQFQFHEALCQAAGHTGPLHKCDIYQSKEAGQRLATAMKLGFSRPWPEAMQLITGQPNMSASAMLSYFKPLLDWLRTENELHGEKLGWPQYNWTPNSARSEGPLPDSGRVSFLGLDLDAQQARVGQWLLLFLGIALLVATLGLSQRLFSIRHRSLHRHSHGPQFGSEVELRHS

| Structure (SMILES) | Activity [2] | inhibition [3] | Activity [4] | inhibition [5] | inhibition [6] | also measured |
| --- | --- | --- | --- | --- | --- | --- |
| Cc1c(O)cccc1C(=O)N[C@@H](CSc1ccccc1)[C@H](O)CN1C[C@H]2CCCC[C@H]2C[C@H]1C(=O)NC(C)(C)C | – | – | – | – | – | inhibition [1]: 48% |
| CC(CN1c2ccccc2Sc2ccccc21)N(C)C (stereo not given) | 3.5% | 84% | -7.4% | 95% | – | – |
| O=C(c1ccc(OCCN2CCCCC2)cc1)c1c(-c2ccc(O)cc2)sc2cc(O)ccc12 | 4.7% | 97% | -7.2% | 88% | – | – |
| CC/C=C\C/C=C\C/C=C\CCCCCCCC(=O)O [LINOLENIC ACID] | – | – | – | – | 100% | Ki [7]: 4 µM |
| O=C1c2c(O)ccc(O)c2C(=O)c2c(NCCNCCO)ccc(NCCNCCO)c21 | -0.4% | 29% | 66% | 81% | – | – |
| CC(N)C12CC3CC(CC(C3)C1)C2 (stereo not given) | 3.6% | -0.4% | -0.8% | 41% | – | – |
| Cc1nc(Nc2ncc(C(=O)Nc3c(C)cccc3Cl)s2)cc(N2CCN(CCO)CC2)n1 [DASATINIB] | – | – | – | – | – | Ki [8]: 715 µM; inhibition [8]: Dose-dependent effect; inhibition [1]: 46% |
| CN(C)CCC=C1c2ccccc2C=Cc2ccccc21 | 1% | 98% | -4.7% | 95% | – | – |
| NC1=NCC2c3ccccc3Cc3ccccc3N12 (stereo not given) | -0.33% | 96% | -1% | 5.5% | – | – |
| NC(=O)N/N=C/c1ccc([N+](=O)[O-])o1 | – | – | – | – | 91% | – |
| Nc1nc2[nH]cnc2c(=S)[nH]1 | 0.61% | 2.3% | 0.2% | 21% | – | – |
| Nc1ccc(/N=N/c2ccccc2)c(N)n1 | – | – | – | – | 23% | – |
| O[C@@H](c1cc(C(F)(F)F)nc2c(C(F)(F)F)cccc12)[C@H]1CCCCN1 (relative stereo) | 45% | 82% | 0.6% | 90% | – | – |
| CCC[C@@]1(CCc2ccccc2)CC(O)=C([C@H](CC)c2cccc(NS(=O)(=O)c3ccc(C(F)(F)F)cn3)c2)C(=O)O1 | – | – | – | – | – | inhibition [9]: 31% |
| CN(C)CCCN1c2ccccc2CCc2ccc(Cl)cc21 | 13% | 99% | -4.5% | 92% | – | – |
| CCn1cc(C(=O)O)c(=O)c2ccc(C)nc21 | – | – | – | – | 34% | – |
| C[C@H](CS)C(=O)N1CCC[C@H]1C(=O)O [CAPTOPRIL] | – | – | – | – | 48% | Ki [10]: 12 µM; Ki [7]: 17 µM |

| Structure (SMILES) | Activity [2] | inhibition [3] | Activity [4] | inhibition [5] | inhibition [6] | also measured |
| --- | --- | --- | --- | --- | --- | --- |
| Cc1ccc(-c2cc(C(F)(F)F)nn2-c2ccc(S(N)(=O)=O)cc2)cc1 | – | – | – | – | – | inhibition [11]: 95%; Activity [12]: 1.8%; inhibition [13]: 96%; Activity [14]: 175% |
| COc1cc2nc(N3CCN(C(=O)C4COc5ccccc5O4)CC3)nc(N)c2cc1OC (stereo not given) | 2.4% | 102% | -4.7% | – | – | – |
| O=C1CN(/N=C/c2ccc([N+](=O)[O-])o2)C(=O)N1 | – | – | – | – | 66% | – |
| NS(=O)(=O)c1cc(C(=O)O)c(NCc2ccco2)cc1Cl | – | – | – | – | 36% | – |
| O=C(O)CCCCC1CCSS1 (stereo not given) | – | – | – | – | 95% | – |
| Oc1ccc(OCc2ccccc2)cc1 | – | – | – | – | 86% | – |
| CC(C)C(=O)Nc1ccc([N+](=O)[O-])c(C(F)(F)F)c1 | – | – | – | – | 100% | – |
| O=C(O)[C@@H]1CCCN1 [PROLINE] | – | – | – | – | – | Ki [8]: 86 µM; inhibition [8]: Dose-dependent effect; inhibition [1]: 93% |
| CCCc1nc2c(C)cc(-c3nc4ccccc4n3C)cc2n1Cc1ccc(-c2ccccc2C(=O)O)cc1 | – | – | – | – | – | Ki [8]: 6 µM; inhibition [8]: Dose-dependent effect; inhibition [1]: 97% |
| C[C@@H]1O[C@@H]1P(=O)(O)O | 0.09% | -1.3% | -1.2% | 29% | – | – |
| CN(C)CC/C=C1/c2ccccc2COc2ccc(CC(=O)O)cc21 | -0.14% | 20% | -1.7% | 52% | – | – |
| CO[C@@H]1[C@@H](OC(N)=O)[C@@H](O)[C@H](Oc2ccc3c(O)c(NC(=O)c4ccc(O)c(CC=C(C)C)c4)c(=O)oc3c2C)OC1(C)C [NOVOBIOCIN] | – | – | – | – | – | Ki [8]: 167 µM; inhibition [8]: Dose-dependent effect; inhibition [1]: 75% |
| C#C[C@]1(O)CC[C@H]2[C@@H]3CCC4=CCCC[C@@H]4[C@H]3C(=C)C[C@@]21CC | 7.1% | 79% | 2.8% | 88% | – | – |
| CC1(C)NC(=O)N(c2ccc([N+](=O)[O-])c(C(F)(F)F)c2)C1=O | – | – | – | – | 99% | – |
| O=[N+]([O-])c1ccc(O)c2ncccc12 [NITROXOLINE] | – | – | – | – | 97% | Ki [10]: 1 µM |
| CCc1cccc2c3c([nH]c12)C(CC)(CC(=O)O)OCC3 (stereo not given) | 0.96% | -1.4% | -1.9% | 13% | – | – |
| CC[C@H]1OC(=O)[C@H](C)[C@@H](O[C@H]2C[C@@](C)(OC)[C@@H](O)[C@H](C)O2)[C@H](C)[C@@H](O[C@@H]2O[C@H](C)C[C@H](N(C)C)[C@H]2O)[C@](C)(O)C[C@@H](C)CN(C)[C@H](C)[C@@H](O)[C@]1(C)O | – | – | – | – | 68% | – |

Reference: ChEMBL document CHEMBL3085742, “Experimental confirmation of new drug-target interactions predicted by Drug Profile Matching” (J Med Chem, 2013)
